In PubChem BioAssay AID232 (DTP/NCI, 2004):
Where “and” joins values, the source holds several entries; their conditions need not be identical. Equal values may be shown once. Inconclusive results and toxic doses are left out.

System: Gardner 6C3HED lymphosarcoma ip, C3AKF1 mice, survival T/C
Assay: NCI In Vivo Anticancer Drug Screen. Data for tumor model Lymphosarcoma Gardner 6C3HED (intraperitoneal) in C3AKF1 (CHKRF1) mice
Details: endpoint: survival time, mean or median, higher = longer survival
Method: The antitumor activity of compounds was measured in mice bearing transplantable tumors. Survival or tumor size were measured and the results are expressed as the measurement made in the treated group (T) divided by the measurement made in the vehicle treated control group (C). The tumor model used in this assay is Lymphosarcoma Gardner 6C3HED (intraperitoneal) in C3AKF1 (CHKRF1) mice

[1] = dose: 1.0 mg/kg/injection, schedule: Q01DX010 (ip), vehicle: saline
[2] = dose: 2.0 mg/kg/injection, schedule: Q01DX010 (ip), vehicle: saline
[3] = dose: 4.0 mg/kg/injection, schedule: Q01DX010 (ip), vehicle: saline
[4] = dose: 8.0 mg/kg/injection, schedule: Q01DX010 (ip), vehicle: saline
[5] = dose: 4.0 mg/kg/injection, schedule: Q01DX010 (ip), vehicle: other
[6] = dose: 8.0 mg/kg/injection, schedule: Q01DX010 (ip), vehicle: other
[7] = dose: 0.5 mg/kg/injection, schedule: Q01DX010 (ip), vehicle: saline
[8] = dose: 20.0 mg/kg/injection, schedule: Q01DX010 (ip), vehicle: saline
[9] = dose: 40.0 mg/kg/injection, schedule: Q01DX010 (ip), vehicle: saline
[10] = dose: 16.0 mg/kg/injection, schedule: Q01DX010 (ip), vehicle: saline
[11] = dose: 32.0 mg/kg/injection, schedule: Q01DX010 (ip), vehicle: saline
[12] = dose: 64.0 mg/kg/injection, schedule: Q01DX010 (ip), vehicle: saline
[13] = dose: 5.0 mg/kg/injection, schedule: Q01DX010 (ip), vehicle: saline
[14] = dose: 10.0 mg/kg/injection, schedule: Q01DX010 (ip), vehicle: saline
[15] = dose: 12.5 mg/kg/injection, schedule: Q01DX010 (sc), vehicle: steriod suspending solution
[16] = dose: 25.0 mg/kg/injection, schedule: Q01DX010 (sc), vehicle: steriod suspending solution
[17] = dose: 50.0 mg/kg/injection, schedule: Q01DX010 (sc), vehicle: steriod suspending solution
[18] = dose: 6.0 mg/kg/injection, schedule: Q01DX010 (ip), vehicle: saline
[19] = dose: 12.0 mg/kg/injection, schedule: Q01DX010 (ip), vehicle: saline
[20] = dose: 2.5 mg/kg/injection, schedule: Q01DX010 (ip), vehicle: saline
[21] = dose: 31.3 mg/kg/injection, schedule: Q01DX010 (ip), vehicle: saline
[22] = dose: 62.5 mg/kg/injection, schedule: Q01DX010 (ip), vehicle: saline
[23] = dose: 125.0 mg/kg/injection, schedule: Q01DX010 (ip), vehicle: saline
[24] = dose: 250.0 mg/kg/injection, schedule: Q01DX010 (ip), vehicle: saline
[25] = dose: 500.0 mg/kg/injection, schedule: Q01DX010 (ip), vehicle: saline
[26] = dose: 25.0 mg/kg/injection, schedule: Q01DX010 (ip), vehicle: saline

Nc1nc2n[nH]nc2c(=O)[nH]1
T/C (dose: 25.0 mg/kg/injection, schedule: Q01DX010 (ip), vehicle: alkali diluted with saline): 115 % of control | T/C (dose: 50.0 mg/kg/injection, schedule: Q01DX010 (ip), vehicle: alkali diluted with saline): 100 % of control and 120 % of control

S=P(N1CC1)(N1CC1)N1CC1
T/C [1]: 115 % of control and 120 % of control | T/C [2]: 120 % of control | T/C [3]: 160 % of control | T/C [4]: 90 % of control and 110 % of control

O=C(Nc1ccc(C2=NCCN2)cc1)c1ccc(C(=O)Nc2ccc(C3=NCCN3)cc2)cc1
T/C [5]: 179 % of control and 186 % of control | T/C [6]: 277 % of control and 300 % of control | T/C (dose: 16.0 mg/kg/injection, schedule: Q01DX010 (ip), vehicle: other): 229 % of control and 300 % of control | T/C (dose: 32.0 mg/kg/injection, schedule: Q01DX010 (ip), vehicle: other): 175 % of control and 200 % of control | T/C (dose: 64.0 mg/kg/injection, schedule: Q01DX010 (ip), vehicle: other): 166 % of control and 200 % of control

CSCS(=O)C[C@H](CO)NC(=O)/C=C/c1c(C)[nH]c(=O)[nH]c1=O (some centres undefined)
T/C (dose: 0.13 mg/kg/injection, schedule: Q01DX010 (ip), vehicle: saline): 87 % of control | T/C (dose: 0.25 mg/kg/injection, schedule: Q01DX010 (ip), vehicle: saline): 90 % of control | T/C [7]: 90 % of control and 91 % of control

OCC1OC(n2cnc3c(=S)nc[nH]c32)C(O)C1O (centres undefined)
T/C [8]: 90 % of control and 95 % of control | T/C [9]: 86 % of control | T/C (dose: 80.0 mg/kg/injection, schedule: Q01DX010 (ip), vehicle: saline): 90 % of control | T/C (dose: 160.0 mg/kg/injection, schedule: Q01DX010 (ip), vehicle: saline): 86 % of control and 90 % of control

NC(=O)N(CCCl)N=O
T/C [7]: 150 % of control and 204 % of control | T/C [1]: 250 % of control and 254 % of control | T/C [3]: 86 % of control

CN(N=O)C(=O)NC(C=O)C(O)C(O)C(O)CO (centres undefined)
T/C [9]: 300 % of control | T/C (dose: 60.0 mg/kg/injection, schedule: Q01DX010 (ip), vehicle: saline): 300 % of control | T/C (dose: 135.0 mg/kg/injection, schedule: Q01DX010 (ip), vehicle: saline): 95 % of control and 100 % of control

c1ccc(CNc2ncnc3[nH]ncc23)cc1
T/C [4]: 100 % of control and 119 % of control | T/C [10]: 104 % of control and 105 % of control | T/C [11]: 90 % of control and 95 % of control | T/C [12]: 90 % of control and 95 % of control

O=C(Nc1ccc(C2=NCCCN2)cc1)c1ccc(NC(=O)c2ccc(C3=NCCCN3)cc2)cc1
T/C (dose: 2.0 mg/kg/injection, schedule: Q01DX010 (ip), vehicle: other): 183 % of control and 250 % of control | T/C [5]: 220 % of control and 300 % of control | T/C [6]: 177 % of control and 187 % of control

C[C@@H]1C[C@@H]([C@H](O)CC2CC(=O)NC(=O)C2)C(=O)[C@@H](C)C1
T/C [13]: 95 % of control and 104 % of control | T/C [14]: 90 % of control and 100 % of control | T/C [8]: 91 % of control and 118 % of control

CC/C(=C(/CC)c1ccc(O)cc1)c1ccc(O)cc1
T/C [15]: 104 % of control and 105 % of control | T/C [16]: 100 % of control and 105 % of control | T/C [17]: 95 % of control and 100 % of control | T/C (dose: 100.0 mg/kg/injection, schedule: Q01DX010 (sc), vehicle: steriod suspending solution): 95 % of control and 100 % of control

CN(C)c1nc(N(C)C)nc(N(C)C)n1
T/C (dose: 18.8 mg/kg/injection, schedule: Q01DX010 (ip), vehicle: saline): 104 % of control | T/C (dose: 37.5 mg/kg/injection, schedule: Q01DX010 (ip), vehicle: saline): 104 % of control | T/C (dose: 75.0 mg/kg/injection, schedule: Q01DX010 (ip), vehicle: saline): 95 % of control and 100 % of control | T/C (dose: 150.0 mg/kg/injection, schedule: Q01DX010 (ip), vehicle: saline): 100 % of control and 104 % of control

CN(C)c1ccc(/C=C/c2ccnc3ccccc23)cc1
T/C [13]: 96 % of control | T/C [14]: 92 % of control | T/C [8]: 92 % of control

N=C(N)c1ccc(Nc2ccc(C(=N)N)cc2)cc1
T/C (dose: 3.0 mg/kg/injection, schedule: Q01DX010 (ip), vehicle: saline): 103 % of control | T/C [18]: 96 % of control | T/C [19]: 96 % of control

C=CC(CN1CC1)OC(C)=O (centres undefined)
T/C [2]: 92 % of control

Nc1nc(=S)c2[nH]cnc2[nH]1
T/C (dose: 1.25 mg/kg/injection, schedule: Q01DX010 (ip), vehicle: other): 95 % of control and 100 % of control | T/C (dose: 1.25 mg/kg/injection, schedule: Q01DX010 (ip), vehicle: saline): 120 % of control | T/C (dose: 2.5 mg/kg/injection, schedule: Q01DX010 (ip), vehicle: other): 104 % of control | T/C [20]: 100 % of control and 110 % of control | T/C (dose: 5.0 mg/kg/injection, schedule: Q01DX010 (ip), vehicle: other): 113 % of control | T/C [13]: 100 % of control and 105 % of control | T/C (dose: 10.0 mg/kg/injection, schedule: Q01DX010 (ip), vehicle: other): 95 % of control | T/C [14]: 100 % of control and 120 % of control

O[C@H](CN1CC1)[C@@H](O)CN1CC1
T/C (dose: 62.5 micrograms/kg/injection, schedule: Q01DX010 (ip), vehicle: saline): 96 % of control | T/C (dose: 125.0 micrograms/kg/injection, schedule: Q01DX010 (ip), vehicle: saline): 92 % of control | T/C (dose: 250.0 micrograms/kg/injection, schedule: Q01DX010 (ip), vehicle: saline): 155 % of control | T/C (dose: 500.0 micrograms/kg/injection, schedule: Q01DX010 (ip), vehicle: saline): 151 % of control

CCCCNc1ncnc2c1cnn2C
T/C [21]: 100 % of control and 104 % of control | T/C [22]: 95 % of control and 100 % of control

O=c1[nH]cc(F)c(=O)[nH]1
T/C [14]: 158 % of control | T/C [8]: 295 % of control | T/C [9]: 87 % of control

O=C(Nc1ccc(C2=NCCN2)cc1)c1ccc(C(=O)Nc2ccc(C3=NCCN3)cc2)c([N+](=O)[O-])c1
T/C [18]: 218 % of control and 272 % of control | T/C [4]: 300 % of control | T/C [19]: 268 % of control and 300 % of control | T/C (dose: 18.0 mg/kg/injection, schedule: Q01DX010 (ip), vehicle: saline): 163 % of control and 259 % of control

Nc1nc(SCc2ccccc2)c2[nH]cnc2n1
T/C [4]: 95 % of control and 100 % of control | T/C [10]: 95 % of control and 104 % of control | T/C [11]: 90 % of control and 91 % of control and 104 % of control | T/C [12]: 87 % of control and 100 % of control (2×)

O=c1cn[nH]c(=O)[nH]1
T/C [22]: 100 % of control and 104 % of control | T/C [23]: 104 % of control | T/C [24]: 90 % of control and 95 % of control | T/C [25]: 90 % of control

N=[N+]=CC(=O)OCC(N)C(=O)O (centres undefined)
T/C (dose: 6.25 mg/kg/injection, schedule: Q01DX010 (ip), vehicle: saline): 150 % of control | T/C [26]: 95 % of control

CCOC(=O)NP(=O)(N1CC1(C)C)N1CC1(C)C (centres undefined)
T/C [21]: 103 % of control | T/C [22]: 111 % of control

NC(Cc1ccc(N(CCCl)CCCl)cc1)C(=O)O (centres undefined)
T/C [4]: 160 % of control | T/C [14]: 103 % of control | T/C [10]: 100 % of control and 105 % of control

CC(=O)Nc1ccc2nc3ccc(NC(C)=O)cc3[n+](-c3ccccc3)c2c1
T/C (dose: 12.5 mg/kg/injection, schedule: Q01DX010 (ip), vehicle: saline): 111 % of control | T/C [26]: 107 % of control | T/C (dose: 50.0 mg/kg/injection, schedule: Q01DX010 (ip), vehicle: saline): 103 % of control | T/C (dose: 100.0 mg/kg/injection, schedule: Q01DX010 (ip), vehicle: saline): 103 % of control

N#[N+]c1cnc([O-])[nH]c1=O
T/C [20]: 175 % of control | T/C [13]: 158 % of control | T/C [14]: 162 % of control

OCC1OC(n2cnc3c(Cl)ncnc32)C(O)C1O (centres undefined)
T/C [22]: 95 % of control | T/C [23]: 90 % of control | T/C [24]: 90 % of control | T/C [25]: 90 % of control and 100 % of control

CC(=O)O[C@]1(C(C)=O)CC[C@H]2[C@@H]3C[C@H](C)C4=CC(=O)C=C[C@]4(C)[C@@]3(F)[C@@H](O)C[C@@]21C
T/C [15]: 111 % of control | T/C [16]: 92 % of control | T/C [17]: 88 % of control
